Converted amounts (≈) assume the structure as drawn.
Assays:
Format in all cases: cell-based
[1] = test system: L1210 murine leukemia cell line; experiment: Disk diffusion soft agar colony formation assay; details: 200 zone units = 6 MM
Procedure: (§1) The method of performing the disk diffusion soft agar colony […] assay is described in Chapter 3 of Cytotoxic Anticancer Drugs: Models and Concepts for Drug Discovery and Development (Frederick A. Valeriote, et al., eds., 1990). In addition to the procedure taught in this reference, one mL ethanol was added to each dry factor in a vial, and the desired concentration of solution was placed on a paper disk. The disk was dried and then placed on soft agar plates as described in the reference.
L1210 = murine leukemia cell line
(§2) ^2 Measurement in zone units; 200 zone units = 6 MM

[2] = test system: H8 human colon solid tumor cell line; experiment: Disk diffusion soft agar colony formation assay; details: 200 zone units = 6 MM
Procedure: as §1
H8 = human colon solid tumor cell line
as §2

[3] = test system: P03 murine pancreatic solid tumor cell line; experiment: Disk diffusion soft agar colony formation assay; details: 200 zone units = 6 MM
Procedure: as §1
P03 = murine pancreatic solid tumor cell line
as §2

[4] = test system: CX-1 human colon solid tumor cell line; experiment: Disk diffusion soft agar colony formation assay; details: factor line, no dose given, 200 zone units = 6 MM
Procedure: as §1
CX1 = human colon solid tumor cell line
as §2

[5] = test system: Trichophyton mentagrophytes; experiment: In vitro antifungal activity, RPMI and 10% fetal calf serum broth
Description: (§3) In those tables, a dash or "N.T." means the material was not tested.

Candida albicans [6] = experiment: as above
Description: as §3

[7] = test system: LML "Low Malignancy Line" fibroblast; experiment: Disk diffusion soft agar colony formation assay; details: 200 zone units = 6 MM
Procedure: as §1
LML = "Low Malignancy Line" fibroblast
as §2

[8] = test system: C38 murine colon solid tumor cell line; experiment: Disk diffusion soft agar colony formation assay; details: 200 zone units = 6 MM
Procedure: as §1
C38 = murine colon solid tumor cell line
as §2

Aspergillus fumigatus [9] = experiment: In vitro antifungal activity, Sabouraud's and Dextrose broth
Description: as §3

[10] = test system: Trichophyton mentagrophytes; experiment: as above
Description: as §3

Candida albicans [11] = experiment: as above
Description: as §3

[12] = test system: Mam17 murine mammary solid tumor cell line; experiment: Disk diffusion soft agar colony formation assay; details: 200 zone units = 6 MM
Procedure: as §1
Mam17 = murine mammary solid tumor cell line
as §2

Aspergillus fumigatus [13] = experiment: In vitro antifungal activity, RPMI and 10% fetal calf serum broth; details: Table 5
Description: as §3

Aspergillus fumigatus [14] = experiment: In vitro antifungal activity, Antibiotic 3 broth (Difco); details: Table 7
Description: as §3

Candida albicans [15] = experiment: as above; details: Table 7
Description: as §3

[16] = test system: Trichophyton mentagrophytes; experiment: as above
Description: as §3

[17] = unlabelled line below the (45 ug) line
[18] = Table 1, RPMI and 10% Fetal Calf Serum Broth
[19] = Table 3, RPMI & 10% Fetal Calf Serum Broth
[20] = Table 5, RPMI and 10% Fetal Calf Serum Broth
[21] = unlabelled line below the (80 ug) line

| SMILES | Measurement in zone units ([1]; factor line, no dose given) | Measurement in zone units ([8]; factor line, no dose given) | Measurement in zone units ([1]; 20 ug per disk) | Measurement in zone units ([1]; 80 ug per disk) | Measurement in zone units ([2]; 20 ug per disk) | Measurement in zone units ([2]; 80 ug per disk) | MIC [5, 19] | MIC (Candida albicans [6]; [19]) | Measurement in zone units ([7]; 20 ug per disk) | Measurement in zone units ([7]; 80 ug per disk) | Measurement in zone units ([12]; factor line, no dose given) | Measurement in zone units ([8]; 20 ug per disk) | Measurement in zone units ([8]; 80 ug per disk) | MIC (Aspergillus fumigatus [9]; Table 4) | MIC ([10]; Table 4) | MIC (Candida albicans [11]; Table 4) | MIC (Aspergillus fumigatus [13]) | MIC (Candida albicans [6]; [20]) | MIC (Aspergillus fumigatus [14]) | MIC (Candida albicans [15]) | further results |
| --- | --- | --- | --- | --- | --- | --- | --- | --- | --- | --- | --- | --- | --- | --- | --- | --- | --- | --- | --- | --- | --- |
| [C-]#[N+]C12C3OC3C(C)(C)C3=Nc4cccc5c4C3(O)C1(O)C(CC(Cl)C2(C)C=C)C5(C)C (stereo not drawn) [A89271 A] | 0-400 zone units | 650 zone units | – | – | – | – | – | – | – | – | – | – | – | – | – | – | – | – | – | – | Measurement in zone units ([1]; 9 ug per disk): 200-250 zone units; Measurement in zone units ([1]; 11 ug per disk): 250-320 zone units; Measurement in zone units ([2]; 9 ug per disk): 200-330 zone units; Measurement in zone units ([2]; 11 ug per disk): 250-420 zone units; Measurement in zone units [2, 17]: 300-470 zone units; Measurement in zone units ([3]; 9 ug per disk): 500 zone units; Measurement in zone units ([3]; factor line, no dose given): 650 zone units; Measurement in zone units [4]: 600-650 zone units; MIC [5, 18]: > 20 µg/mL; MIC (Candida albicans [6]; [18]): 2.5 µg/mL (≈ 5.52 µM); Measurement in zone units ([7]; 11 ug per disk): 0-300 zone units; Measurement in zone units [7, 17]: 0-300 zone units; Measurement in zone units ([8]; 9 ug per disk): 480 zone units; Measurement in zone units ([8]; 11 ug per disk): 610 zone units; Measurement in zone units ([8]; 45 ug per disk): 670 zone units; Measurement in zone units [8, 17]: 750 zone units; MIC (Aspergillus fumigatus [9]; Table 2): 80 µg/mL (≈ 177 µM); MIC ([10]; Table 2): 10 µg/mL (≈ 22.1 µM); MIC (Candida albicans [11]; Table 2): 2.5 µg/mL (≈ 5.52 µM) |
| [C-]#[N+]C1C2c3c(C(C)(C)C=C)[nH]c4cccc(c34)C(C)(C)C2CC(Cl)C1(C)C=C (stereo not drawn) [A89271 B] | 210 zone units | – | 100-200 zone units | 200-250 zone units | 180 zone units | 200-300 zone units | 2.5 µg/mL (≈ 6.14 µM) | 1.25 µg/mL (≈ 3.07 µM) | 0-100 zone units | 80-250 zone units | 220 zone units | 260-400 zone units | 430 zone units | 20 µg/mL (≈ 49.1 µM) | > 80 µg/mL | 1.25 µg/mL (≈ 3.07 µM) | – | – | – | – | Measurement in zone units [4]: 220 zone units; Measurement in zone units ([7]; factor line, no dose given): 0-250 zone units |
| [C-]#[N+]C1C(C)(C=C)C(Cl)CC2C(C)(C)c3cccc4[nH]c(C(C)(C)C=C)c(c34)C21O (stereo not drawn) [A89271 C] | – | – | – | – | – | – | 0.625 µg/mL (≈ 1.48 µM) | 1.25 µg/mL (≈ 2.96 µM) | – | – | – | – | – | > 80 µg/mL | > 80 µg/mL | 2.5 µg/mL (≈ 5.91 µM) | – | – | – | – | – |
| C[C@@H]1[C@H](O)[C@@H](C)/C=C/C=C/C=C/C=C/C=C/C=C/C=C/[C@H](O[C@@H]2O[C@H](C)[C@@H](O)[C@H](N)[C@@H]2O)C[C@@H]2O[C@](O)(C[C@@H](O)C[C@@H](O)[C@H](O)CC[C@@H](O)C[C@@H](O)CC(=O)O[C@H]1C)C[C@H](O)[C@H]2C(=O)O [Amphotericin B, reference compound] | – | – | – | – | – | – | – | 0.156 µg/mL (≈ 0.169 µM) | – | – | – | – | – | 1.25 µg/mL (≈ 1.35 µM) | – | 0.312 µg/mL (≈ 0.338 µM) | 1.25 µg/mL (≈ 1.35 µM) | 0.625 µg/mL (≈ 0.676 µM) | 0.039 µg/mL (≈ 0.0422 µM) | 0.02 µg/mL (≈ 0.0216 µM) | MIC (Candida albicans [6]; [18]): 0.156 µg/mL (≈ 0.169 µM); MIC (Aspergillus fumigatus [9]; Table 2): 1.25 µg/mL (≈ 1.35 µM); MIC (Aspergillus fumigatus [9]; Table 6): 5.0 µg/mL (≈ 5.41 µM); MIC (Candida albicans [11]; Table 2): 0.625 µg/mL (≈ 0.676 µM); MIC (Candida albicans [11]; Table 6): 0.312 µg/mL (≈ 0.338 µM) |
| [C-]#[N+]C12C3OC3C(C)(C)c3[nH]c4cccc5c4c3C1(O)C(CCC2(C)C=C)C5(C)C (stereo not drawn) [A89271 I] | 260 zone units | – | 100-250 zone units | 200-220 zone units | 100-180 zone units | – | – | – | 0-180 zone units | 100-200 zone units | 250 zone units | 680 zone units | 500 zone units | – | – | – | > 80 µg/mL | 1.25 µg/mL (≈ 3.11 µM) | > 80 µg/mL | 1.25 µg/mL (≈ 3.11 µM) | Measurement in zone units ([1]; 16 ug per disk): 110 zone units; Measurement in zone units ([2]; 16 ug per disk): 120 zone units; Measurement in zone units ([3]; 16 ug per disk): 420 zone units; Measurement in zone units ([3]; 80 ug per disk): 490 zone units; MIC [5, 20]: 2.5 µg/mL (≈ 6.21 µM); MIC ([16]; Table 7): 5.0 µg/mL (≈ 12.4 µM); Measurement in zone units ([7]; factor line, no dose given): 0-200 zone units; Measurement in zone units ([8]; 16 ug per disk): 390 zone units; MIC (Aspergillus fumigatus [9]; Table 6): > 80 µg/mL; MIC ([10]; Table 6): 2.5 µg/mL (≈ 6.21 µM); MIC (Candida albicans [11]; Table 6): 2.5 µg/mL (≈ 6.21 µM) |
| [C-]#[N+]C12C3OC3C(C)(C)c3[nH]c4cccc5c4c3C1(O)C(CC(Cl)C2(C)C=C)C5(C)C (stereo not drawn) [A89271 F] | 200-250 zone units | 500 zone units | 300-350 zone units | 350-460 zone units | 200-350 zone units | 200-400 zone units | 1.25 µg/mL (≈ 2.86 µM) | 1.25 µg/mL (≈ 2.86 µM) | 0-80 zone units | 0-120 zone units | – | 590 zone units | 550-580 zone units | > 80 µg/mL | > 80 µg/mL | 1.25 µg/mL (≈ 2.86 µM) | – | – | – | – | Measurement in zone units ([1]; 8 ug per disk): 250-280 zone units; Measurement in zone units ([1]; 16 ug per disk): 0-220 zone units; Measurement in zone units ([2]; 16 ug per disk): 200-330 zone units; Measurement in zone units ([2]; factor line, no dose given): 200-300 zone units; Measurement in zone units ([3]; 16 ug per disk): 440 zone units; Measurement in zone units ([3]; factor line, no dose given): 500 zone units; Measurement in zone units ([7]; 8 ug per disk): 0-400 zone units; Measurement in zone units ([12]; 8 ug per disk): 250 zone units; Measurement in zone units ([8]; 16 ug per disk): 460 zone units |
| [C-]#[N+]C1C(C)(C=C)CCC2C(C)(C)c3cccc4[nH]c(C(C)(C)C=C)c(c34)C12O (stereo not drawn) [A89271 E] | 280 zone units | 300 zone units | 100-200 zone units | 250-300 zone units | 100-180 zone units | 220-240 zone units | – | – | 80 zone units | 100-180 zone units | 350 zone units | 300-360 zone units | – | – | – | – | > 80 µg/mL | 2.5 µg/mL (≈ 6.43 µM) | > 80 µg/mL | 5.0 µg/mL (≈ 12.9 µM) | Measurement in zone units [1, 21]: 200-220 zone units; Measurement in zone units ([3]; 80 ug per disk): 440-500 zone units; Measurement in zone units [3, 21]: 460 zone units; MIC [5, 20]: 2.5 µg/mL (≈ 6.43 µM); MIC ([16]; Table 7): 5.0 µg/mL (≈ 12.9 µM); Measurement in zone units [8, 21]: 480-500 zone units; MIC (Aspergillus fumigatus [9]; Table 6): > 80 µg/mL; MIC ([10]; Table 6): 2.5 µg/mL (≈ 6.43 µM); MIC (Candida albicans [11]; Table 6): 5 µg/mL (≈ 12.9 µM) |
| [C-]#[N+]C12C(O)C(O)C(C)(C)c3[nH]c4cccc5c4c3C1(O)C(CC(Cl)C2(C)C=C)C5(C)C (stereo not drawn) [A89271 D] | – | – | – | – | – | – | 0.625 µg/mL (≈ 1.37 µM) | 1.25 µg/mL (≈ 2.75 µM) | – | – | – | – | – | > 80 µg/mL | > 80 µg/mL | 1.25 µg/mL (≈ 2.75 µM) | – | – | – | – | – |
| Cc1cccc(N(C)C(=S)Oc2ccc3ccccc3c2)c1 [Tolnaftate, reference compound] | – | – | – | – | – | – | – | – | – | – | – | – | – | – | – | – | – | – | – | – | MIC ([5]; Table 1, RPMI and 10% Fetal Calf Serum Broth, read-out: MIC): 0.039 µg/mL (≈ 0.127 µM); MIC ([5]; Table 3, RPMI & 10% Fetal Calf Serum Broth, read-out: MIC): < 0.02 µg/mL; MIC ([5]; Table 5, RPMI and 10% Fetal Calf Serum Broth, read-out: MIC): 0.02 µg/mL (≈ 0.0651 µM); MIC ([16]; Table 7, read-out: MIC): 0.02 µg/mL (≈ 0.0651 µM); MIC ([10]; Table 2, read-out: MIC): 0.039 µg/mL (≈ 0.127 µM); MIC ([10]; Table 4, read-out: MIC): < 0.02 µg/mL; MIC ([10]; Table 6, read-out: MIC): 0.02 µg/mL (≈ 0.0651 µM) |

— patent publication US5457119A, “A89271 factors and processes for their production” (priority 1994, dated 1995)
